From patent US11110158B2, “Prostate-associated antigens and vaccine-based immunotherapy regimens” (Pfizer Inc., priority 2012, dated 2021)

Legend:
[1] = tested on: hPSMA full-length protein; test: IFN-γ ELISPOT, hPSMA modified versus full-length DNA vaccine in Pasteur (HLA-A2/DR1) transgenic mice; format: in vivo, human
Source text: The immune responses induced by DNA vaccination using a construct encoding an immunogenic PSMA polypeptide (the “human PSMA modified antigen” or “hPSMA modified”) consisting 15-750 amino acids (aa) of the native human PSMA protein of SEQ ID NO: 1 were compared with those induced by the native human full-length PSMA protein (hPSMA full length). Groups of female C57BL/6 mice or female Pasteur (HLA-A2/DR1) transgenic mice were primed on day 0 and boosted on days 14, 28 by PMED administration with a 2 μg dose of a DNA vaccine encoding either hPSMA full-length or hPSMA modified protein. Mice were bled and sacrificed on day 35 (7 days after the third vaccination) and T cell immune responses against the hPSMA full-length protein were determined in splenocytes by IFN-γ ELISPOT assay. For C57BL/6 mice, single cell suspensions of 5×10^5 splenocytes from individual animals were plated per well with […] purified hPSMA protein, 5×10^4 TRAMP-C2 cells alone, or TRAMP-C2 cells expressing hPSMA or a PSMA-PSA-PSCA fusion protein. […] Responses in Pasteur mice were also determined using 10 μg/ml purified PSMA protein or 5×10^4 SK-Mel5 cells that had been transduced with Adenoviral vectors expressing a control protein (Ad-eGFP) or the full-length human PSMA protein (Ad-hPSMA). […] The number of IFN-γ SFC was counted by a CTL reader. […]

rhesus PSMA = test: IFNγ ELISPOT of PBMCs, rhesus PSMA adenovirus with subcutaneous anti-CTLA-4 in Indian rhesus macaques; format: in vivo; details: versus vaccine alone
Experimental: Five groups of male Indian rhesus macaques, seven (#1 to 7) per each test group, were immunized with an adenovirus encoding a rhesus PSMA modified polypeptide delivered by bilateral intramuscular injections (2×5e10 V.P.). Immediately following the adenovirus injections, group 1 received vehicle, and groups 2 to 4 received bilateral subcutaneous injections of anti-CTLA-4 antibody (CP-675, 206) at doses 2×25 mg, 2×16.7 mg and 2×8.4 mg respectively in proximity to the vaccine draining lymph node.
Nine days after the immunization, peripheral blood mononuclear cells (PBMCs) were isolated from each animal and were subjected to an IFNγ ELISPOT assay to measure the rhesus PSMA specific T cell responses. Briefly, 4e5 PBMCs from individual animals were plated per well with pools of rhesus PSMA specific peptides (P1, P2, P3 or R1+R2 defined in table 24A) or nonspecific control peptides (human HER2 peptide pool) each at 2 ug/ml in IFNγ ELISPOT plates. The plates were incubated for 16 hrs at 37° C. and 5% CO2 and washed and developed after incubation as per manufacturer's instruction. The number of IFNγ spot forming cells (SFC) were counted by CTL reader. Each condition was performed in duplicates. The average of the duplicates from the background adjusted SFC of the rhesus PSMA specific peptide pools was normalized to the response in 1e6 PBMCs.
A capture antibody specific to IFNγ […]BD Bioscience, #51-2525kc) is coated onto a polyvinylidene fluoride (PVDF) membrane in a microplate overnight at 4° C. The plate is blocked with serum/protein to prevent nonspecific binding to the antibody. After blocking, effector cells (such as splenocytes isolated from immunized mice or PBMCs isolated from rhesus macaques) and targets (such as PSMA peptides from peptide library, target cells pulsed with antigen specific peptides or tumor cells expressing the relevant antigens) are added to the wells and incubated overnight at 37° C. in a 5% CO2 incubator. Cytokine secreted by effector cells are captured by the coating antibody on the surface of the PVDF membrane. […]

| Substance | IFN-γ T cell immune responses to the HLA-A2-restricted CD8+ T cell epitopes ([1]; Example 7, FIG. 27A, day 35, difference between groups not significant) | IFN-γ SFC to the purified hPSMA protein ([1]; Example 7, FIG. 27B, day 35, versus hPSMA full-length vaccine) | rhesus PSMA specific IFNγ T cell response (rhesus PSMA; group 2: 50 mg (2×25 mg) subcutaneous near vaccine draining lymph node, P=0.001) | rhesus PSMA specific IFNγ T cell response (rhesus PSMA; group 3: 33.4 mg subcutaneous, P=0.004) | rhesus PSMA specific IFNγ T cell response (rhesus PSMA; group 4: 16.7 mg subcutaneous, P=0.05) |
| --- | --- | --- | --- | --- | --- |
| PSMA modified: membrane-bound polypeptide of amino acids 15-750 of human PSMA, SEQ ID NO: 9; tested as DNA construct | highest magnitude of IFN-γ T cell immune responses | higher frequencies of IFN-γ SFC | – | – | – |
| Tremelimumab: fully human IgG2 anti-CTLA-4 monoclonal antibody, CAS 745013-59-6, SEQ ID NOs:42 and 43 | – | – | significantly enhanced | significantly enhanced | significantly enhanced |
